How the values were obtained:
[1] = test system: KINGS-1 (Low Grade Glioma); assay: combination Emax (second highest fraction inhibited in the dose matrix, 72 h); higher = more inhibition; extreme values may be limits of the assay
Summary of the method: (§1)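 After 24 hours at 37°C and 5% CO2 in 1536-well plates, cells in DMEM/F12 or RPMI plus 10% FBS received two-drug dose matrices for 72 hours. Viability came from CellTiter-Glo 2.0 luminescence and was scaled as inhibition, anchored at 0 by vehicle wells and at 1 by blank wells. Combination Emax is taken as the second-highest inhibition in the matrix, and Bliss excess as the observed combination effect less EA + EB − EA·EB, with EA and EB the single-agent effects.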

[2] = test system: HSC-2 (Oral Cavity Carcinoma); assay: as above
Summary of the method: as §1

[3] = test system: NCI-N87 (Gastric Carcinoma); assay: as above
Summary of the method: as §1

A704 (Kidney Carcinoma) = assay: as above
Summary of the method: as §1

RPMI-7951 (Melanoma) = assay: as above
Summary of the method: as §1

[4] = test system: KYSE-150 (Esophageal Squamous Cell Carcinoma); assay: as above
Summary of the method: as §1

[5] = test system: EMC-BAC-2 (Non-Small Cell Lung Carcinoma); assay: as above
Summary of the method: as §1

EW-3 (Ewing's Sarcoma) = assay: as above
Summary of the method: as §1

[6] = test system: MFE-319 (Endometrial Carcinoma); assay: as above
Summary of the method: as §1

IMR-5 (Neuroblastoma) = assay: as above
Summary of the method: as §1

[7] = test system: KYSE-50 (Esophageal Squamous Cell Carcinoma); assay: as above
Summary of the method: as §1

[8] = test system: LC4-1 (B-Lymphoblastic Leukemia); assay: as above
Summary of the method: as §1

[9] = test system: LOU-NH91 (Squamous Cell Lung Carcinoma); assay: as above
Summary of the method: as §1

[10] = test system: HSC-2 (Oral Cavity Carcinoma); assay: Bliss excess, mean over the matrix (fraction); higher = more synergy
Summary of the method: as §1

[11] = test system: NCI-H2347 (Lung Adenocarcinoma); assay: as above
Summary of the method: as §1

[12] = test system: KLE (Endometrial Carcinoma); assay: as above
Summary of the method: as §1

[13] = test system: KP-2 (Pancreatic Carcinoma); assay: as above
Summary of the method: as §1

[14] = test system: SCC-3 (B-Cell Non-Hodgkin's Lymphoma); assay: as above
Summary of the method: as §1

[15] = test system: JHH-7 (Hepatocellular Carcinoma); assay: as above
Summary of the method: as §1

[16] = test system: ASH-3 (Thyroid Gland Carcinoma); assay: as above
Summary of the method: as §1
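Throughout, for Bliss excess, mean over the matrix: after 72 h of two-drug dosing.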

| Compound | combination Emax [1] | combination Emax [2] | combination Emax [3] | combination Emax (A704 (Kidney Carcinoma)) | combination Emax (RPMI-7951 (Melanoma)) | combination Emax [4] | combination Emax [5] | combination Emax (EW-3 (Ewing's Sarcoma)) | combination Emax [6] | combination Emax (IMR-5 (Neuroblastoma)) | combination Emax [7] | combination Emax [8] | combination Emax [9] | Bliss excess [10] | Bliss excess [11] | Bliss excess [12] | Bliss excess [13] | Bliss excess [14] | Bliss excess [15] | Bliss excess [16] |
| --- | --- | --- | --- | --- | --- | --- | --- | --- | --- | --- | --- | --- | --- | --- | --- | --- | --- | --- | --- | --- |
| CC1(C)CCC(CN2CCN(c3ccc(C(=O)NS(=O)(=O)c4ccc(NCC5CCOCC5)c([N+](=O)[O-])c4)c(Oc4cnc5[nH]ccc5c4)c3)CC2)=C(c2ccc(Cl)cc2)C1 [Venetoclax] + C[C@@H](Nc1cc(F)cc(F)c1)c1cc(C(=O)N(C)C)cc2c(=O)cc(N3CCOCC3)oc12 [AZD8186] (first compound max 1 µM, 7x7, partner max 3 µM) | 0.332 | 0.92 | 0.578 | 0.429 | 0.496 | 0.161 | 0.2 | 0.736 | 0.0342 | 0.276 | 0.18 | 1 | 0.221 | -0.0482 | -0.0045 | 0.0002 | -0.0312 | 0.0263 | -0.0516 | -0.0223 |
| Cc1c2c(nn1C)CSCc1cc(n(C)n1)CSc1cc(c3ccccc3c1)OCCCc1c(C(=O)O)n(C)c3c-2c(Cl)ccc13 [AZD5991] + C=CCn1c(=O)c2cnc(Nc3ccc(N4CCN(C)CC4)cc3)nc2n1-c1cccc(C(C)(C)O)n1 [AZD1775] (first compound max 1 µM, partner max 1 µM) | 0.334 | 0.853 | 0.727 | 0.43 | 0.957 | 0.634 | 0.842 | 0.701 | 0.913 | 1 | 0.618 | 0.986 | 0.556 | -0.0132 | -0.0393 | -0.0616 | 0.0069 | 0.0088 | 0.0348 | -0.0243 |
| CC1(C)CCC(CN2CCN(c3ccc(C(=O)NS(=O)(=O)c4ccc(NCC5CCOCC5)c([N+](=O)[O-])c4)c(Oc4cnc5[nH]ccc5c4)c3)CC2)=C(c2ccc(Cl)cc2)C1 [Venetoclax] + COc1cc(Nc2ncc3c(n2)-c2ccc(Cl)cc2C(c2c(F)cccc2OC)=NC3)ccc1C(=O)O [Alisertib] (first compound max 1 µM, 7x7, partner max 10 µM) | 0.379 | 0.732 | 0.335 | 0.758 | 0.683 | 0.516 | 0.507 | 0.847 | 0.395 | 1 | 0.537 | 1 | 0.479 | 0.0857 | -0.0487 | -0.0709 | -0.0293 | 0.0308 | -0.0134 | 0.0145 |
| COc1cccc(OCCCN)c1-c1cc(Nc2cnc(C#N)cn2)n[nH]1 [Prexasertib] + O=C(c1cc(Cc2n[nH]c(=O)c3ccccc23)ccc1F)N1CCN(C(=O)C2CC2)CC1 [Olaparib] (first compound max 1 µM, 7x7, partner max 10 µM) | 0.405 | 0.782 | 0.668 | 0.421 | 0.974 | 0.61 | 0.44 | 0.815 | 0.811 | 0.976 | 0.75 | 0.982 | 0.573 | -0.0206 | -0.0407 | 0.0514 | -0.0682 | -0.0133 | -0.0795 | 0.027 |
| COc1nnc2ccc(N3CCC(c4ccc(OCCN5CCN(C)C(=O)[C@H]5C)cc4)CC3)nn12 [AZD5153] + Cn1cnc2c(F)c(Nc3ccc(Br)cc3Cl)c(C(=O)NOCCO)cc21 [Selumetinib] (first compound max 1 µM, 7x7, partner max 10 µM) | 0.323 | 0.737 | 0.567 | 0.855 | 0.677 | 0.661 | 0.738 | 0.629 | 0.579 | 0.906 | 0.697 | 0.975 | 0.63 | 0.045 | -0.0361 | -0.0636 | -0.0001 | -0.053 | -0.0274 | -0.0338 |
| CC1(C)CCC(CN2CCN(c3ccc(C(=O)NS(=O)(=O)c4ccc(NCC5CCOCC5)c([N+](=O)[O-])c4)c(Oc4cnc5[nH]ccc5c4)c3)CC2)=C(c2ccc(Cl)cc2)C1 [Venetoclax] + Cn1cnc2c(F)c(Nc3ccc(Br)cc3Cl)c(C(=O)NOCCO)cc21 [Selumetinib] (first compound max 1 µM, 7x7, partner max 3 µM) | 0.262 | 0.161 | 0.242 | 0.158 | 0.424 | 0.273 | 0.347 | 0.643 | 0.145 | 0.221 | 0.133 | 1 | 0.246 | -0.0511 | -0.012 | -0.0704 | -0.0177 | 0.028 | -0.0442 | -0.0074 |
